According to patent US8530680B2, “System and method for controlling growth of microorganisms with brominated furanones” (Syracuse University, priority 2008, dated 2013):

Tests used:
C. albicans = C. albicans specific growth rate in a shake flask (data not shown); type: cell-based, Candida albicans; settings: 3 μg/mL, after 3 hours of treatment
[1] = system: six fungal strains (Gloeophyllum trabeum, Chaetomium globosum, Trametes versicolor); experiment: Fungal growth on MEA plates with furanone, statements for all six strains; type: cell-based; settings: 1 to 60 μg/mL
Experimental: This Example examines the effect of brominated furanones on the growth of fungi associated with damage to building material. Six fungal strains were the subject of these experiments; Gloeophyllum trabeum (strains GT598 and GT599), Chaetomium globosum (wildtype strain and CG572), and Trametes versicolor (strains TV7B2-59 and TV57MAD277). The species were developed on 2% Malt-Extract Agar (MEA) plates and stored inverted at 4° C. The stocks were refreshed by streaking new plates every two months.
The brominated and non-brominated furanones were added to MAE agar plates at different concentrations. The brominated furanones were dissolved in either ethanol (“EtOH”) or methanol (“MeOH”) as stock solutions, as shown in Table 5. The non-brominated furanones were purchased from Sigma (St. Louis, Mo.). The furanone stocks were stored at 4° C.
MAE agar plates containing the same amounts of ethanol/methanol were also prepared as negative controls to eliminate any solvent effects. The plates were prepared using either 90 mm or 60 mm petri dishes and were stored inverted at 4° C. until use.
Different concentrations of furanones were studied to compare their antifungal activities. The plates were inoculated with the six fungal strains using a platinum loop and were incubated upside down at 30° C. for 7 days to monitor the growth. The initial screening was performed using a single 60 μg/mL furanone concentration.

[2] = system: C. albicans strain SC5341 gene expression; experiment: DNA microarray gene expression of C. albicans after BF1 treatment; type: cell-based, Candida albicans; settings: for Induction expression ratio: 3 μg/mL BF1, 45 minutes
Experimental: An overnight culture of C. albicans strain SC5341 grown in SD medium was sub-cultured in 25 mL of the same medium to an initial OD600 of 0.005 and grown till the OD600 was 1.0. The culture was diluted using fresh SD medium to a volume of 100 mL with an initial OD600 of 0.6, and it was grown till the OD600 reached 1.0, which took approximately 2 hours. Then the culture was split into two equal portions, with 3 μg/mL of BF1 added to the first one and the same amount of ethanol added to the second one to eliminate the effects of ethanol. […] Forty-five minutes after BF1 addition, the cells were harvested by centrifugation at 13,200 rpm at 4° C. for 30 sec and stored at −80° C. until RNA isolation. To lyse the cells, 1.5 mL of Trizol reagent (Invitrogen® Co., Carlsbad, Calif.) and 0.5 mL of 0.5 mm glass beads were added to the frozen tubes containing C. albicans cell pellets. The tubes were closed tightly and beaten for 30 sec at 4,800 oscillations/minute using a mini bead beater (Biospec Products Inc., Bartlesville, Okla.). The total RNA was extracted using Trizol reagent by following the manufacture's protocol. The extracted RNA was further cleaned up using an RNeasy mini-kit (QIAGEN® Inc., Valencia, Calif.), including on-column DNA digestion with RNase-free DNase I. The RNA yield was quantified by OD260 reading, and the RNA integrity was checked, using agarose gel electrophoresis. The RNA samples were sent to the DNA MicroArray Lab at the Biotechnology Research Institute, National Research Council of Canada (Montreal, Canada) to further check the integrity and DNA microarray hybridization. RNA from a control sample and that from a furanone-treated sample were hybridized to each array. A total of four DNA microarrays were used and four biological replicates were tested. The data were analyzed using Genespring GX version 7.3 (Agilent Technologies®, Santa Clara Calif.). […] Gene functions were annotated by searching the Candida Genome Database at (www.candidagenome.org).

In the case of `CCCCC1=C(Br)/C(=C/Br)OC1=O` [BF1, 4-bromo-5Z-(bromomethylene)-3-butylfuran-2-one], the “reduction of specific growth rate” value (C. albicans) is reported as “approximately 50%”, the “growth inhibition of the six fungal strains, comparison” value [1] is reported as “effective at preventing growth in low concentrations” and the Induction expression ratio ([2]; orf19.113 CIP1) is reported as 3.17. The Induction expression ratio ([2]; orf19.1167) was 1.65, the Induction expression ratio ([2]; orf19.1237 ARO9) was 1.87 and the Induction expression ratio ([2]; orf19.125 EBP1) was 13.87. The Induction expression ratio ([2]; orf19.1286) was 1.97, the Induction expression ratio ([2]; orf19.1421 DAL3) was 1.58 and the Induction expression ratio ([2]; orf19.1783 YOR1) was 1.78. The “induction of gene CPD1 in DNA microarray” value ([2]; orf19.2175 (CPD1), 3 μg/mL BF1) was 12.94 fold, the Induction expression ratio ([2]; orf19.2175) was 10.94 and the Induction expression ratio ([2]; orf19.2262) was 2.68. For the same compound, the Induction expression ratio ([2]; orf19.23 RTA3) was 5.01, the Induction expression ratio ([2]; orf19.2396 IFR2) was 2.05 and the Induction expression ratio ([2]; orf19.2693) was 3.97. The Induction expression ratio ([2]; orf19.2825 DRE2) was 1.69, the Induction expression ratio ([2]; orf19.3131 OYE32) was 12.89 and the Induction expression ratio ([2]; orf19.3139) was 8.82. For the same compound, the Induction expression ratio ([2]; orf19.320) was 14.98, the Induction expression ratio ([2]; orf19.3234 OYE22) was 4.00 and the Induction expression ratio ([2]; orf19.3340 SOD2) was 1.72. For the same compound, the Induction expression ratio ([2]; orf19.3433 OYE23) was 20.04, the Induction expression ratio ([2]; orf19.3443 OYE2) was 3.30 and the Induction expression ratio ([2]; orf19.3707 YHB1) was 2.65. For the same compound, the Induction expression ratio ([2]; orf19.4940 HIP1) was 2.57, the Induction expression ratio ([2]; orf19.5059 GCS1) was 1.96 and the Induction expression ratio ([2]; orf19.5604 MDR1) was 5.36. For the same compound, the Induction expression ratio ([2]; orf19.5992 WOR2) was 1.54, the Induction expression ratio ([2]; orf19.6059 TTR2) was 1.80 and the Induction expression ratio ([2]; orf19.6275) was 1.94. For the same compound, the Induction expression ratio ([2]; orf19.6869) was 4.21, the Induction expression ratio ([2]; orf19.7306) was 2.87 and the Induction expression ratio ([2]; orf19.7531) was 2.53. It also gave an Induction expression ratio ([2]; orf19.896 CHK1) of 1.54, an Induction expression ratio ([2]; orf19.93) of 1.53 and an Induction expression ratio ([2]; repressed gene orf19.1097 ALS4) of 0.42. The Induction expression ratio ([2]; repressed gene orf19.1344) was 0.60, the Induction expression ratio ([2]; repressed gene orf19.270) was 0.47 and the Induction expression ratio ([2]; repressed gene orf19.2896 SOU1) was 0.60. It also gave an Induction expression ratio ([2]; repressed gene orf19.2959.1) of 0.64, an Induction expression ratio ([2]; repressed gene orf19.3066 ENG1) of 0.57 and an Induction expression ratio ([2]; repressed gene orf19.3629 DSE1) of 0.66. The Induction expression ratio ([2]; repressed gene orf19.3794 CSR1) was 0.60, the Induction expression ratio ([2]; repressed gene orf19.4337 ESBP6) was 0.65 and the Induction expression ratio ([2]; repressed gene orf19.4737 TPO3) was 0.60. For the same compound, the Induction expression ratio ([2]; repressed gene orf19.5170 ENA21) was 0.61, the Induction expression ratio ([2]; repressed gene orf19.5193 FMA1) was 0.61 and the Induction expression ratio ([2]; repressed gene orf19.5267) was 0.56. It also gave an Induction expression ratio ([2]; repressed gene orf19.5565) of 0.43, an Induction expression ratio ([2]; repressed gene orf19.6073 HMX1) of 0.59 and an Induction expression ratio ([2]; repressed gene orf19.6077) of 0.51. For the same compound, the Induction expression ratio ([2]; repressed gene orf19.6245) was 0.67, the Induction expression ratio ([2]; repressed gene orf19.716) was 0.51 and the Induction expression ratio ([2]; repressed gene orf19.742 ALD6) was 0.33. It also gave an Induction expression ratio ([2]; repressed gene orf19.7502) of 0.67 and an Induction expression ratio ([2]; repressed gene orf19.7586 CHT3) of 0.66.
